Source: the supplement of paper PMC10307832

What was measured:
Assay in all cases: relative viability (nuclei count vs DMSO), 5 days (fraction); higher = more cells survive
[1] = system: NCI-H1975
In short: (§1)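 Lung cancer cell lines were seeded in 1536-well plates and dosed by pin tool the next day, with either a single drug or a fixed anchor-drug dose combined with five library-drug doses (not always all listed) spaced in √10 steps. Five days later, one step fixed the cells and stained their nuclei (final 0.05% Triton X-100, 1% formaldehyde, 1 ug/ml Hoechst), and nuclei were counted on 4× images. Relative viability is the nuclei count in treated wells divided by the count in vehicle wells, and each value is the median of duplicate plates.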

[2] = system: SK-MES-1
In short: as §1

[3] = system: RERF-LC-KJ
In short: as §1

[4] = system: NCI-H1395
In short: as §1

[5] = system: NCI-H2087
In short: as §1

[6] = system: NCI-H2085
In short: as §1

[7] = system: NCI-H1993
In short: as §1

[8] = system: A-427
In short: as §1

[9] = system: NCI-H2023
In short: as §1

[10] = system: EPLC-272H
In short: as §1

[11] = system: NCI-H2170
In short: as §1

[12] = system: COR-L 105
In short: as §1

[13] = system: NCI-H1651
In short: as §1

[14] = system: NCI-H647
In short: as §1

[15] = system: LCLC-103H
In short: as §1

[16] = system: NCI-H650
In short: as §1

[17] = system: NCI-H596
In short: as §1

[18] = system: HOP-62
In short: as §1

[19] = system: CAL-12T
In short: as §1

[20] = system: COR-L23
In short: as §1

[21] = system: PC-14
In short: as §1

[22] = system: LXF-289
In short: as §1

[23] = system: NCI-H3122
In short: as §1

Structure (SMILES): O=C(O)CCCCC(CCSCc1ccccc1)SCc1ccccc1 (stereo not given) [CPI-613] + COc1cccc2cc(-c3nc([C@H]4CC[C@H](C(=O)O)CC4)n4ncnc(N)c34)[nH]c12 [OSI-027] (partner 0.5 µM)
- relative viability ([1]; first compound 5 µM): 0.693
- relative viability ([1]; first compound 15.81 µM): 0.589
- relative viability ([1]; first compound 50 µM): 0.741
- relative viability ([1]; first compound 158.11 µM): 0.245
- relative viability ([1]; first compound 500 µM): 0.0526
- relative viability ([2]; first compound 5 µM): 0.592
- relative viability ([2]; first compound 15.81 µM): 0.526
- relative viability ([2]; first compound 50 µM): 0.465
- relative viability ([2]; first compound 158.11 µM): 0.12
- relative viability ([2]; first compound 500 µM): 0.0545
- relative viability ([3]; first compound 5 µM): 0.553
- relative viability ([3]; first compound 15.81 µM): 0.491
- relative viability ([3]; first compound 50 µM): 0.513
- relative viability ([3]; first compound 158.11 µM): 0.114
- relative viability ([3]; first compound 500 µM): 0.0544
- relative viability ([4]; first compound 5 µM): 0.67
- relative viability ([4]; first compound 15.81 µM): 0.602
- relative viability ([4]; first compound 50 µM): 0.668
- relative viability ([4]; first compound 158.11 µM): 0.694
- relative viability ([4]; first compound 500 µM): 0.568
- relative viability ([5]; first compound 5 µM): 0.501
- relative viability ([5]; first compound 15.81 µM): 0.462
- relative viability ([5]; first compound 50 µM): 0.471
- relative viability ([5]; first compound 158.11 µM): 0.195
- relative viability ([5]; first compound 500 µM): 0.0169
- relative viability ([6]; first compound 5 µM): 0.727
- relative viability ([6]; first compound 15.81 µM): 0.659
- relative viability ([6]; first compound 50 µM): 0.787
- relative viability ([6]; first compound 158.11 µM): 0.308
- relative viability ([6]; first compound 500 µM): 0.112
- relative viability ([7]; first compound 5 µM): 0.531
- relative viability ([7]; first compound 15.81 µM): 0.572
- relative viability ([7]; first compound 50 µM): 0.567
- relative viability ([7]; first compound 158.11 µM): 0.46
- relative viability ([7]; first compound 500 µM): 0.375
- relative viability ([8]; first compound 5 µM): 0.416
- relative viability ([8]; first compound 15.81 µM): 0.423
- relative viability ([8]; first compound 50 µM): 0.387
- relative viability ([8]; first compound 158.11 µM): 0.348
- relative viability ([8]; first compound 500 µM): 0.154
- relative viability ([9]; first compound 5 µM): 0.407
- relative viability ([9]; first compound 15.81 µM): 0.303
- relative viability ([9]; first compound 50 µM): 0.29
- relative viability ([9]; first compound 158.11 µM): 0.0518
- relative viability ([9]; first compound 500 µM): 0.0054
- relative viability ([10]; first compound 5 µM): 0.279
- relative viability ([10]; first compound 15.81 µM): 0.307
- relative viability ([10]; first compound 50 µM): 0.263
- relative viability ([10]; first compound 158.11 µM): 0.261
- relative viability ([10]; first compound 500 µM): 0.0195
- relative viability ([11]; first compound 5 µM): 0.718
- relative viability ([11]; first compound 15.81 µM): 0.715
- relative viability ([11]; first compound 50 µM): 0.662
- relative viability ([11]; first compound 158.11 µM): 0.482
- relative viability ([11]; first compound 500 µM): 0.101
- relative viability ([12]; first compound 5 µM): 0.605
- relative viability ([12]; first compound 15.81 µM): 0.407
- relative viability ([12]; first compound 50 µM): 0.49
- relative viability ([12]; first compound 158.11 µM): 0.319
- relative viability ([12]; first compound 500 µM): 0.105
- relative viability ([13]; first compound 5 µM): 0.66
- relative viability ([13]; first compound 15.81 µM): 0.79
- relative viability ([13]; first compound 50 µM): 0.616
- relative viability ([13]; first compound 158.11 µM): 0.333
- relative viability ([13]; first compound 500 µM): 0.0775
- relative viability ([14]; first compound 5 µM): 0.667
- relative viability ([14]; first compound 15.81 µM): 0.498
- relative viability ([14]; first compound 50 µM): 0.445
- relative viability ([14]; first compound 158.11 µM): 0.147
- relative viability ([14]; first compound 500 µM): 0.0299
- relative viability ([15]; first compound 5 µM): 0.424
- relative viability ([15]; first compound 15.81 µM): 0.428
- relative viability ([15]; first compound 50 µM): 0.345
- relative viability ([15]; first compound 158.11 µM): 0.377
- relative viability ([15]; first compound 500 µM): 0.317
- relative viability ([16]; first compound 5 µM): 0.445
- relative viability ([16]; first compound 15.81 µM): 0.415
- relative viability ([16]; first compound 50 µM): 0.466
- relative viability ([16]; first compound 158.11 µM): 0.346
- relative viability ([16]; first compound 500 µM): 0.373
- relative viability ([17]; first compound 5 µM): 0.673
- relative viability ([17]; first compound 15.81 µM): 0.623
- relative viability ([17]; first compound 50 µM): 0.832
- relative viability ([17]; first compound 158.11 µM): 0.489
- relative viability ([17]; first compound 500 µM): 0.0755
- relative viability ([18]; first compound 5 µM): 0.74
- relative viability ([18]; first compound 15.81 µM): 0.759
- relative viability ([18]; first compound 50 µM): 0.799
- relative viability ([18]; first compound 158.11 µM): 0.477
- relative viability ([18]; first compound 500 µM): 0.301
- relative viability ([19]; first compound 5 µM): 0.739
- relative viability ([19]; first compound 15.81 µM): 0.515
- relative viability ([19]; first compound 50 µM): 0.593
- relative viability ([19]; first compound 158.11 µM): 0.0379
- relative viability ([19]; first compound 500 µM): 0.0106
- relative viability ([20]; first compound 5 µM): 0.738
- relative viability ([20]; first compound 15.81 µM): 0.584
- relative viability ([20]; first compound 50 µM): 0.562
- relative viability ([20]; first compound 158.11 µM): 0.169
- relative viability ([20]; first compound 500 µM): 0.0278
- relative viability ([21]; first compound 5 µM): 0.736
- relative viability ([21]; first compound 15.81 µM): 0.756
- relative viability ([21]; first compound 50 µM): 0.702
- relative viability ([21]; first compound 158.11 µM): 0.0567
- relative viability ([21]; first compound 500 µM): 0.0096
- relative viability ([22]; first compound 5 µM): 0.788
- relative viability ([22]; first compound 15.81 µM): 0.694
- relative viability ([22]; first compound 50 µM): 0.733
- relative viability ([22]; first compound 158.11 µM): 0.404
- relative viability ([22]; first compound 500 µM): 0.0382
- relative viability ([23]; first compound 5 µM): 0.9
- relative viability ([23]; first compound 15.81 µM): 0.876
- relative viability ([23]; first compound 50 µM): 0.7
- relative viability ([23]; first compound 158.11 µM): 0.39
- relative viability ([23]; first compound 500 µM): 0.045
